Assay results taken from US6852673B2, “Herbicidal pyridine compounds” (BASF Aktiengesellschaft, priority 1998, dated 2005).

Columns and labels:
Format in all cases: in vivo
Hordeum vulgare (HORVW) = experiment: Pre-emergence herbicidal evaluation, winter barley
Method in brief: (§1)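 Pre-emergence; seed/potting-soil mix sown on ~1 inch soil; spray aqueous acetone solution, ~0.0125–0.4 kg/ha equivalent; greenhouse, watered; visual rating at 2–4 wk.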

Zea mays (ZEAMX) = experiment: Post-emergence herbicidal evaluation, maize; details: rated 2 to 4 weeks after treatment
Procedure: (§2) [table] [table] […] These acetone solutions are diluted with water and the resulting formulations applied at dosage levels equivalent of about 0.03 to 0.4 kg per hectare of test compound per pot. After spraying the plants are placed on greenhouse benches and are cared for in the usual manner, commensurate with conventional greenhouse practices. From 2 to 4 weeks after treatment, the seedling plants are examined and rated according to the rating system provided above. A rating 0 indicates growth as untreated control, a rating 9 indicates death.

[1] = tested on: Matricaria inodora (MATIN); experiment: Pre-emergence herbicidal evaluation, mayweed
Method in brief: as §1

[2] = tested on: Digitaria sanguinalis (DIGSA); experiment: Pre-emergence herbicidal evaluation, large crabgrass
Method in brief: as §1

[3] = tested on: Cassia obtusifolia (CASOB); experiment: Post-emergence herbicidal evaluation, sicklepod; details: rated 2 to 4 weeks after treatment
Procedure: as §2

Solanum nigrum (SOLNI) = experiment: Pre-emergence herbicidal evaluation, black nightshade
Method in brief: as §1

Setaria viridis (SETVI) = experiment: Post-emergence herbicidal evaluation, green foxtail; details: for SETVI rating: rated 2 to 4 weeks after treatment; for grass control such as Setaria virides: in barley at crop selective doses
Procedure: as §2

Galium aparine (GALAP) = experiment: Pre-emergence herbicidal evaluation, cleaver
Method in brief: as §1

[4] = tested on: Echinochloa grus galli (ECHCG); experiment: Post-emergence herbicidal evaluation, barnyard grass; details: rated 2 to 4 weeks after treatment
Procedure: as §2

weeds = experiment: Post-emergence herbicidal evaluation, overall weed control; details: in barley at crop selective doses
Procedure: as §2

[5] = tested on: Cassia obtusifolia (CASOB); experiment: Pre-emergence herbicidal evaluation, sicklepod; details: dose 0.4 kg/ha
Excerpt: The pre-emergence herbicidal activity of the compounds of the present invention is exemplified by the following test in which the seeds of a variety of monocotyledonous and dicotyledonous plants are seperately mixed with potting soil and planted on top of approximately one inch of soil in separate pots. After planting, the pots are sprayed with the selected aqueous acetone solution containing test compound in sufficient quantity to provide the equivalent of about 0.0125 to 0.4 kg per hectare of test compound per pot. The treated pots are then placed on greenhouse benches, watered and cared for in accordance with conventional greenhouse procedures. From 2 to 4 weeks after treatment, the tests are terminated and each pot is examined and rated according to the rating system set forth below.

SMILES | HORVW rating (Hordeum vulgare (HORVW); dose 0.013 kg/ha) | HORVW rating (Hordeum vulgare (HORVW); dose 0.025 kg/ha) | HORVW rating (Hordeum vulgare (HORVW); dose 0.1 kg/ha) | HORVW rating (Hordeum vulgare (HORVW); dose 0.4 kg/ha) | ZEAMX rating (Zea mays (ZEAMX); dose 0.1 kg/ha) | ZEAMX rating (Zea mays (ZEAMX); dose 0.4 kg/ha) | MATIN rating ([1]; dose 0.1 kg/ha) | MATIN rating ([1]; dose 0.4 kg/ha) | DIGSA rating ([2]; dose 0.013 kg/ha) | DIGSA rating ([2]; dose 0.025 kg/ha) | DIGSA rating ([2]; dose 0.1 kg/ha) | DIGSA rating ([2]; dose 0.4 kg/ha) | CASOB rating ([3]; dose 0.4 kg/ha) | SOLNI rating (Solanum nigrum (SOLNI); dose 0.013 kg/ha) | SOLNI rating (Solanum nigrum (SOLNI); dose 0.025 kg/ha) | SOLNI rating (Solanum nigrum (SOLNI); dose 0.1 kg/ha) | SOLNI rating (Solanum nigrum (SOLNI); dose 0.4 kg/ha) | SETVI rating (Setaria viridis (SETVI); dose 0.1 kg/ha) | SETVI rating (Setaria viridis (SETVI); dose 0.4 kg/ha) | grass control such as Setaria virides (Setaria viridis (SETVI)) | further results
Cc1cc(OCC(F)(F)C(F)(F)C(F)(F)C(F)F)nc(Oc2cc(C(F)(F)F)nn2C)c1 [Example 8] | 0 (0 - No effect) | 1 (1 - Trace effect) | 3 (3 - Moderate effect) | 4 (4 - Injury) | 1 (1 - Trace effect) | 3 (3 - Moderate effect) | 9 (9 - Complete kill) | 9 (9 - Complete kill) | 1 (1 - Trace effect) | 2 (2 - Slight effect) | 9 (9 - Complete kill) | 9 (9 - Complete kill) | 7 (7 - Good herbicidal effect) | 1 (1 - Trace effect) | 3 (3 - Moderate effect) | 8 (8 - Approaching complete kill) | 8 (8 - Approaching complete kill) | 6 (6 - Herbicidal effect) | 8 (8 - Approaching complete kill) | effective | ZEAMX rating (Zea mays (ZEAMX); dose 0.03 kg/ha): 1 (1 - Trace effect); MATIN rating ([1]; dose 0.013 kg/ha): 8 (8 - Approaching complete kill); MATIN rating ([1]; dose 0.025 kg/ha): 8 (8 - Approaching complete kill); CASOB rating ([3]; dose 0.03 kg/ha): 2 (2 - Slight effect); CASOB rating ([3]; dose 0.1 kg/ha): 7 (7 - Good herbicidal effect); SETVI rating (Setaria viridis (SETVI); dose 0.03 kg/ha): 3 (3 - Moderate effect); GALAP rating (Galium aparine (GALAP); dose 0.013 kg/ha): 1 (1 - Trace effect); GALAP rating (Galium aparine (GALAP); dose 0.025 kg/ha): 1 (1 - Trace effect); GALAP rating (Galium aparine (GALAP); dose 0.1 kg/ha): 6 (6 - Herbicidal effect); GALAP rating (Galium aparine (GALAP); dose 0.4 kg/ha): 8 (8 - Approaching complete kill); ECHCG rating ([4]; dose 0.03 kg/ha): 2 (2 - Slight effect); ECHCG rating ([4]; dose 0.1 kg/ha): 5 (5 - Definite injury); ECHCG rating ([4]; dose 0.4 kg/ha): 8 (8 - Approaching complete kill); broad-leaved weed control (weeds): effective
Cc1cc(OCC(F)(F)C(F)F)nc(Oc2cc(C(F)(F)F)nn2C)c1 [Example 6] | 0 (0 - No effect) | 0 (0 - No effect) | 2 (2 - Slight effect) | 3 (3 - Moderate effect) | 2 (2 - Slight effect) | 5 (5 - Definite injury) | 9 (9 - Complete kill) | 9 (9 - Complete kill) | 1 (1 - Trace effect) | 2 (2 - Slight effect) | 9 (9 - Complete kill) | 9 (9 - Complete kill) | 6 (6 - Herbicidal effect) | 4 (4 - Injury) | 4 (4 - Injury) | 8 (8 - Approaching complete kill) | 9 (9 - Complete kill) | 3 (3 - Moderate effect) | 6 (6 - Herbicidal effect) | effective | ZEAMX rating (Zea mays (ZEAMX); dose 0.25 kg/ha): 1 (1 - Trace effect); CASOB rating ([3]; dose 0.25 kg/ha): 4 (4 - Injury); SETVI rating (Setaria viridis (SETVI); dose 0.25 kg/ha): 2 (2 - Slight effect); GALAP rating (Galium aparine (GALAP); dose 0.013 kg/ha): 1 (1 - Trace effect); GALAP rating (Galium aparine (GALAP); dose 0.025 kg/ha): 1 (1 - Trace effect); GALAP rating (Galium aparine (GALAP); dose 0.1 kg/ha): 5 (5 - Definite injury); GALAP rating (Galium aparine (GALAP); dose 0.4 kg/ha): 8 (8 - Approaching complete kill); CASOB rating [5]: 9 (9 - Complete kill); broad-leaved weed control (weeds): effective
